Source: the supplement of paper PMC5579334

How the values were obtained:
HS-PSS [1] = test: drug sensitivity score (DSS, CellTox-Green cytotoxicity, 72 h) (DSS (dimensionless)); higher = more cytotoxic; extreme values may be limits of the assay
In short: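 MPNST cell lines and primary human Schwann cells were grown for 72 h at 37 °C in 384-well plates containing five 10-fold compound dilutions. CellTox-Green, added before seeding at a final 1:1000 dilution, gave fluorescence from DNA released by disrupted cells, and signals were scaled to vehicle and positive-control wells. Curves were fitted with a four-parameter logistic model. Drug sensitivity score and relative IC50 come from these fits, with IC50 censored at the top concentration.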

YST-1 [2] = test: drug sensitivity score (DSS, CellTiter-Glo viability, 72 h) (DSS (dimensionless)); higher = more sensitive; extreme values may be limits of the assay
In short: (§1)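 Viability of MPNST cell lines and primary human Schwann cells was read as CellTiter-Glo ATP luminescence after 72 h at 37 °C, 5% CO2, in 384-well plates seeded with 750–1000 cells per well. Each compound had been preprinted at five concentrations in 10-fold steps. Signals were scaled between vehicle and positive-control wells, duplicates averaged where present, and fitted with four-parameter logistic curves. Drug sensitivity score and relative IC50 (censored at the top concentration) come from those fits, and percent inhibition is taken at the top concentration.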

HS-PSS [3] = test: as above
In short: as §1

HS-Sch-2 [4] = test: as above
In short: as §1

YST-1 [5] = test: % inhibition of CellTiter-Glo viability at highest tested concentration (72 h), relative to DMSO and benzethonium chloride controls; higher = more inhibition
In short: as §1

HS-PSS [6] = test: as above
In short: as §1

HS-Sch-2 [7] = test: as above
In short: as §1

Row | SMILES | drug sensitivity score (HS-PSS [1]) | drug sensitivity score (YST-1 [2]) | drug sensitivity score (HS-PSS [3]) | drug sensitivity score (HS-Sch-2 [4]) | % inhibition (YST-1 [5]) [%] | % inhibition (HS-PSS [6]) [%] | % inhibition (HS-Sch-2 [7]) [%]
1 | OCCn1cc(-c2cnc3nnn(Cc4ccc5ncccc5c4)c3n2)cn1 (max concentration tested 2500 nM) | 0 | 0.62 | 0.05 | 0 | 18.5 | 9.08 | 0.31
2 | CCS(=O)(=O)N1CC(CC#N)(n2cc(-c3ncnc4[nH]ccc34)cn2)C1 [Baricitinib] (max concentration tested 2500 nM) | 0 | 0 | 0 | 0 | -0.02 | 1.87 | 4.94
3 | COc1cc(C(=O)NC2CCN(C)CC2)c(F)cc1Nc1ncc2c(n1)N(C1CCCC1)CC(F)(F)C(=O)N2C [TAK-960] (max concentration tested 2500 nM) | 0 | 0 | 0 | 0.18 | 2.44 | 11.9 | 16.2
4 | Clc1ccccc1C(c1ccccc1)(c1ccccc1)n1cccn1 [TRAM-34] (max concentration tested 1000 nM) | 0 | 0 | 0.59 | 0.38 | 3.42 | 13.4 | 15.5
5 | O=C(O)c1ccc(Nc2ncc3c(n2)-c2ccc(Cl)cc2C(c2c(F)cccc2F)=NC3)cc1 [MLN-8054] (max concentration tested 10000 nM) | 0 | 6.64 | 3.57 | 6.25 | 46.6 | 36.4 | 60.3
6 | NC(=O)c1cccc(-c2cccc(OC(=O)NC3CCCCC3)c2)c1 [URB597] (max concentration tested 1000 nM) | 0 | 0 | 1.09 | 0 | -6.54 | 18.8 | 0.43
7 | Cc1csc(-c2nnc(Nc3ccc(Oc4ncccc4-c4ccnc(N)n4)cc3)c3ccccc23)c1 [AMG-900] (max concentration tested 1000 nM) | 0 | 9.1 | 0.8 | 1.27 | 29.8 | 19.6 | 30
8 | COC[C@H](NC(=O)c1cnc(C)s1)C(=O)N[C@@H](COC)C(=O)N[C@@H](Cc1ccccc1)C(=O)[C@@]1(C)CO1 [Oprozomib] (max concentration tested 2500 nM) | 7.1 | 18.4 | 14.3 | 26.3 | 101 | 98.3 | 102
9 | Cc1ccccc1C(C(=O)NC1CCCCC1)N(C(=O)Cn1ccnc1C)c1cccc(F)c1 (stereo not drawn) [AGI-5198] (max concentration tested 10000 nM) | 0 | 0 | 0.2 | 0.6 | 1.43 | 11.5 | 4.74
10 | CC(C)N(C[C@H]1O[C@@H](n2cnc3c(N)ncnc32)[C@H](O)[C@@H]1O)[C@H]1C[C@@H](CCc2nc3cc(C(C)(C)C)ccc3[nH]2)C1 [Pinometostat] (max concentration tested 1000 nM) | 0 | 0 | 0 | 0 | -2.52 | 5.45 | -7.39
11 | Nc1nc(Nc2ccc3c(c2)CC[C@@H](N2CCCC2)CC3)nn1-c1cc2c(nn1)-c1ccccc1CCC2 [BGB324] (max concentration tested 10000 nM) | 0 | 7.59 | 2.95 | 14.4 | 99.3 | 23.7 | 99.5
12 | CN[C@@H](C)C(=O)N[C@H](C(=O)N1CCC[C@H]1c1nc(C(=O)c2ccc(F)cc2)cs1)C1CCCCC1 [LCL161] (max concentration tested 25000 nM) | 0.11 | 3.14 | 2.18 | 2.38 | 38.7 | 27.8 | 44.2
13 | Cc1cc(C)c(CNC(=O)c2cc(-c3ccc(CN4CCOCC4)cc3)cc3c2cnn3C2CCCC2)c(=O)[nH]1 [EPZ-5687] (max concentration tested 10000 nM) | 0 | 0 | 0 | 0 | 1.37 | -1.01 | -5.4
14 | Cc1cc(Nc2cc(N3CCN(C)CC3)nc(/C=C/c3ccccc3)n2)n[nH]1 [ENMD-2076] (max concentration tested 10000 nM) | 1.84 | 10.8 | 8.13 | 12.1 | 63.9 | 70.5 | 95.5
